According to PMC4521925, “17β-Hydroxysteroid Dehydrogenase Type 2 Inhibition: Discovery of Selective and Metabolically Stable Compounds Inhibiting Both the Human Enzyme and Its Murine Ortholog” (PLoS ONE, 2015):
Read-outs that look alike come from different tables or passages of the source.

Columns and labels:
h17β-HSD2 [1] = target: T1, h17β-HSD2 (Homo sapiens, UniProt P37059); design: from tissue; host or cells: human placenta, microsomal fraction; details: human placental microsomal fraction, substrate E2 [500 nM], cofactor NAD+ [1500 μM]; previously described inhibitors; cited from earlier work
T1 sequence (P37059 1-387): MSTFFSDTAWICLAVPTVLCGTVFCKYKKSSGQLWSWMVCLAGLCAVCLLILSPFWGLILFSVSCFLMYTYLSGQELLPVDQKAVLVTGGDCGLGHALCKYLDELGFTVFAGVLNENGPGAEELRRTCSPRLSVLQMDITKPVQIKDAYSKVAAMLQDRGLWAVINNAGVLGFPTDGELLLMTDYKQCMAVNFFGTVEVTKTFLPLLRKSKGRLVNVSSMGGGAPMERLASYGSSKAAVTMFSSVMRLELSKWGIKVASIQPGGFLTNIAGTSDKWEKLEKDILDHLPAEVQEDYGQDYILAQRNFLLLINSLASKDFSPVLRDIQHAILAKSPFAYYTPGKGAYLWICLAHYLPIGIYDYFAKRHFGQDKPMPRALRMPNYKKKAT

m17β-HSD2 = target: T2, m17β-HSD2 (Mus musculus, UniProt P51658); experiment: Inhibition of m17β-HSD2 in cell-free assay; assay type: biochemical; details: for % inh. at 1 μM m17β-HSD2: mouse liver microsomal fraction, substrate E2 [500 nM], cofactor NAD+ [1500 μM], Table 1
T2 construct: The microsomal fraction (m17β-HSD2) was obtained from mouse liver as described for h17β-HSD2; tissue Pharmacelsus GmbH (mouse livers); host or cells: mouse liver, microsomal fraction
T2 sequence (P51658 1-381): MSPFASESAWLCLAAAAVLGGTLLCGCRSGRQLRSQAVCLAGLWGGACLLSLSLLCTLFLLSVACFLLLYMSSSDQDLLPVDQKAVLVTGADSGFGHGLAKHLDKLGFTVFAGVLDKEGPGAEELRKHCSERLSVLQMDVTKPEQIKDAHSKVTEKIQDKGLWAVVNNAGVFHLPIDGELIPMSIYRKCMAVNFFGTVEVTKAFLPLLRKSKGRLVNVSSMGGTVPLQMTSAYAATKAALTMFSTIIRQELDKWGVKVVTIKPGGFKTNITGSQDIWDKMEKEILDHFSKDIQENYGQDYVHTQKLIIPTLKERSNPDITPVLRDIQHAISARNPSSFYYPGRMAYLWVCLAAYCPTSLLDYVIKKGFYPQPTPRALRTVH
Protocol: (§1) h17β-HSD2, h17β-HSD1, m17β-HSD2 and m17β-HSD1 cell-free assays were performed similarly, by incubating enzyme, tritiated substrate, cofactor and inhibitor, according to described procedures.
The microsomal fraction (m17β-HSD2) was obtained from mouse liver as described for h17β-HSD2. Inhibitory activities were evaluated by a method identical to the one described for the human enzyme.
(§2) Inhibitory activities were evaluated following an established method with minor modifications. Briefly, the enzyme preparation was incubated with NAD^+ [1500 μM] in the presence of potential inhibitors at 37C in a phosphate buffer (50 mM) supplemented with 20% of glycerol and EDTA 1mM. Inhibitor stock solutions were prepared in DMSO. Final concentration of DMSO was adjusted to 1% in all samples. […] After 20 min, the incubation was stopped with HgCl2 and the mixture was extracted with ether. After evaporation, the steroids were dissolved in acetonitrile/water (45:55). […] Detection and quantification of the steroids were performed using a radioflow detector (Berthold Technologies, Bad Wildbad). […] Each value was calculated from at least two independent experiments.

ERβ = ERβ (Homo sapiens, UniProt Q92731); experiment: Estrogen receptor affinity in a cell-free assay (ERβ); assay type: binding; details: 1000-fold excess relative to E2; recombinant human ERβ
Protocol: (§3) The binding affinity of selected compounds to ERα and ERβ was determined according to the recommendations of the US Environmental Protection Agency (EPA) by their Endocrine Disruptor Screening Program (EDSP)[24] using recombinant human proteins.
(§4) The potential inhibitors were dissolved in DMSO (5% final concentration). […] After incubation, ligand-receptor complexes were selectively bound to hydroxyapatite (83.5 g/LinTE-buffer). The bound complex was washed three times and resuspended in ethanol. For radiodetection, scintillator cocktail (Quickszint 212, Zinsser Analytic, Frankfurt) was added and samples were measured in a liquid scintillation counter (1450 LSC & Luminescence Counter, Perkin Elmer).
(§5) After the assay was established and validated, a modification was made to increase throughput.

[2] = Metabolic stability in a cell-free assay (liver S9 fraction); assay type: in vitro ADME; details: pooled liver S9 fraction; human liver S9 fraction 1 mg/ml, NADPH regenerating system, UDPGA, PAPS, 37°C; inhibitor 1 μM; read-out: Inhibitor t1/2
Protocol: Compounds 7a, 8a, 16a, 19a, 22a, 27a and 27 were tested according to established method[33–35]For evaluation of phase I and II metabolic stability 1 μM compound was incubated with 1 mg/ml pooled mammalian liver S9 fraction (BD Gentest), 2 mM NADPH regenerating system, 1 mM UDPGA and 0.1 mM PAPS at 37°C for 0, 5, 15 and 60 minutes at a final volume of 100 μL. The incubation was stopped by precipitation of S9 enzymes with 2 volumes of cold acetonitrile containing internal standard. Concentration of the remaining test compound at the different time points was analyzed by LC-MS/MS and used to determine half-life (t1/2).

ERα = target: T3, ERα (Homo sapiens, UniProt P03372); experiment: Estrogen receptor affinity in a cell-free assay (ERα); assay type: binding; details: 1000-fold excess relative to E2; recombinant human ERα
T3 sequence (P03372 1-595): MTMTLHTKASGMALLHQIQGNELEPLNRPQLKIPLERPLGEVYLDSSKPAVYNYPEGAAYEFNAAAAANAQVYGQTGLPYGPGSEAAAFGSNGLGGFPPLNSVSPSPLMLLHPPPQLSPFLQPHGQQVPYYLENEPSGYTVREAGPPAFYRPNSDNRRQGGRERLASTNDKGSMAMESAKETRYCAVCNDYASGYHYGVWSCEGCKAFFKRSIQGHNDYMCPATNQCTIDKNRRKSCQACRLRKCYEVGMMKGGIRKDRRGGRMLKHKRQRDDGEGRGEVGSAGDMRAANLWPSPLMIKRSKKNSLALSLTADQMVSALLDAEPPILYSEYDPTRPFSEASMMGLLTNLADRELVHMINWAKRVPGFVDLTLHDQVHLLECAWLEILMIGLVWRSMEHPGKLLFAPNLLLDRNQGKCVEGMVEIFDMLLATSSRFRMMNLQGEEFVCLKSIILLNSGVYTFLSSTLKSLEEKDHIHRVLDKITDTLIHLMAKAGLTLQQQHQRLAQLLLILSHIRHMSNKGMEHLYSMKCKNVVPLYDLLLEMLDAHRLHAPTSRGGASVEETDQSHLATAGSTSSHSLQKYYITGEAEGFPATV
Protocol: as §3, §4, §5

h17β-HSD1 = target: T4, h17β-HSD1 (Homo sapiens, UniProt P14061); experiment: Inhibition of h17β-HSD1 in cell-free assay; assay type: biochemical; details: human placental cytosolic fraction, substrate E1 [500 nM], cofactor NADH [500 μM]
T4 construct: h17β-HSD1 was obtained after precipitation with ammonium sulfate from the cytosolic fraction; from tissue; host or cells: human placenta, cytosolic fraction
T4 sequence (P14061 1-328): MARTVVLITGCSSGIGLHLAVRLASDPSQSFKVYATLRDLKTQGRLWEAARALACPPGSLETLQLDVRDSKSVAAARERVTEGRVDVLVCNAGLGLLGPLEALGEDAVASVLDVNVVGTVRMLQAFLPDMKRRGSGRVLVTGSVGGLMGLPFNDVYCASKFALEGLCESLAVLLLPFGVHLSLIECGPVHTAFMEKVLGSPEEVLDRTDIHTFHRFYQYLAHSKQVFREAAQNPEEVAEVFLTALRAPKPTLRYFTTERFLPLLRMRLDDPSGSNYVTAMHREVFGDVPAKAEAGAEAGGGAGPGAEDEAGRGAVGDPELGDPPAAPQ
Protocol: as §1
(§6) Cytosolic (h17β-HSD1) and microsomal (h17β-HSD2) fractions were obtained from human placenta according to previously described procedures. Fresh tissue was homogenized and the enzymes were separated from the mitochondria, cell membrane. Nucleus and other rests by fractional centrifugation at 1000 g, 10.000 g and 150.000 g. The pellet fraction containing the microsomal h17β-HSD2 was used for the determination of h17β-HSD2 inhibition, while h17β-HSD1 was obtained after precipitation with ammonium sulfate from the cytosolic fraction for use of testing of h17β-HSD1 inhibition. Aliquots containing h17β-HSD1 or h17β-HSD2 were stored frozen.
The 17β-HSD1 inhibition assay was performed similarly to the h17β-HSD2 test. The human cytosolic enzyme was incubated with NADH [500 μM] while the mouse recombinant enzyme was reacted with NADPH [500 μM].Test compound and a mixture of unlabelled- and [^3H]-E1 (final concentration: 500 nM, 0.15 μCi) were added and mixed for 10 min at 37°C. Further treatment of the samples and HPLC separation was carried out as mentioned above for h17β-HSD2.

h17β-HSD2 [3] = target: T1, h17β-HSD2; experiment: Inhibition of h17β-HSD2 in cell-free assay; assay type: biochemical; design: from tissue; host or cells: human placenta, microsomal fraction
Protocol: as §1, §6, §2

ERβ, sequence (Q92731 whole entry): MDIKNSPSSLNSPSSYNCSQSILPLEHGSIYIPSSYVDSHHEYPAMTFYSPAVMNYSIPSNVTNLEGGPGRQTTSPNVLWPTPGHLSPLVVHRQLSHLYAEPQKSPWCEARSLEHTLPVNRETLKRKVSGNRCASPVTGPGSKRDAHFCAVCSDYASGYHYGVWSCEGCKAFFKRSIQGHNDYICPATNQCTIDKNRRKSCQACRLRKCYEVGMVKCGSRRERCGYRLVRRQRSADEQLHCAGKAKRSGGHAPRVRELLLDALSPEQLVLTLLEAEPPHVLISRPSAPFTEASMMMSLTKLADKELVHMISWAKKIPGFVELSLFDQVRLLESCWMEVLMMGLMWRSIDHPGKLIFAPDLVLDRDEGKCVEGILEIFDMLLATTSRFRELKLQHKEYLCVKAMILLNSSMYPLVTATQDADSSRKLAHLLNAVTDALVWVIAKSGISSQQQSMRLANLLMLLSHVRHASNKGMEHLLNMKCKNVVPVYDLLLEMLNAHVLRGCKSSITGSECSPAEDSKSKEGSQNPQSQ

Compound | % inh. at 1 μM m17β-HSD2 (m17β-HSD2) | IC50 (h17β-HSD2 [1]) | other results
COc1cccc(N(C)C(=O)c2ccc(-c3cccc(N(C)C)c3)s2)c1 [Compound 1g] | 40% | 170 nM | 
COc1cccc(CN(C)C(=O)c2ccc(-c3cccc(C)c3F)cc2)c1 [Compound 25a, 2'-Fluoro-N-(3-methoxybenzyl)-N,3'-dimethyl-[1,1'-biphenyl]-4-carboxamide] |  |  | displacement of E2 from ERβ (ERβ): ≤ 20%; inhibition at 1 µM (m17β-HSD2; read-out: % inh. at 1 μM m17β-HSD2): 43%; half-life at 1 μM [2]: 1.72 h; displacement of E2 from ERα (ERα): ≤ 20%; IC50 (h17β-HSD1): 87000 nM; IC50 (h17β-HSD2 [3]): 310 nM; s.f. (selectivity factor) = IC50(17β-HSD1)/IC50(17β-HSD2) (h17β-HSD2 [3]; human enzymes, cell-free): 283
COc1cccc(N(C)C(=O)c2ccc(-c3cccc(OC)c3F)s2)c1 [Compound 1j] | 26% | 62 nM | 

Further lines, with some results ahead:

% inh. at 1 μM m17β-HSD2 (m17β-HSD2) | Compound | IC50 (h17β-HSD2 [1]) | other results
25% | COc1cccc(-c2cccc(C(=O)N(C)c3cccc(OC)c3)c2)c1 [Compound 4a] | 520 nM | 
29% | CN(Cc1cccc(O)c1)C(=O)c1cccc(-c2cccc(O)c2)c1 [Compound 4e] | 640 nM | 
